Assay [1] has as its target T1, β5 subunit of the human constitutive proteasome (CPS) (Homo sapiens, UniProt P28074).
T1 construct: purchased Boston Biochem E-360
Briefly: β5 inhibition assay, human constitutive proteasome (Suc-LLVY-AMC). In kind it is biochemical. Conditions: IC50 class, Suc-LLVY-AMC substrate. How it is done: The enzymatic activity of the β5 subunit of the human constitutive proteasome (CPS) is analyzed. In another assay, which differs from the assay of the human constitutive proteasome only in using the human immunoproteasome (IPS) the enzymatic activity of the β5 subunit of the human immunoproteasome (IPS) is analyzed. […] Inhibition is indicated as IC50 [nM] (“-”=not measured).

In assay [2] the target is T2, β5 subunit of the human immunoproteasome (IPS) (Homo sapiens, UniProt P28062).
T2 construct: purchased Boston Biochem E-370
Briefly: β5 inhibition assay, human immunoproteasome (Suc-LLVY-AMC). Type of assay: biochemical. Conditions: IC50 class, Suc-LLVY-AMC substrate. An outline of the steps: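 Human immunoproteasome (1 nM final) was preincubated 10 min at RT with compound in 100 mM HEPES pH 7.5, 50 mM NaCl, 0.02% SDS, 1 mM DTT. Suc-LLVY-AMC (22.6 μM final) was then added for 4 h at RT in the dark. After stopping with 1 μM bortezomib, AMC fluorescence was read (ex 355/em 460 nm).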

Assay [3] deals with A549 (human lung carcinoma cell line). Nature of the assay: Glo assay of A549 cells (Table 3; ProteasomeGlo plating scheme). In kind it is cell-based. Conditions: Homo sapiens; A549 cells; read-out: PGLo A549. An outline of the steps:
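Cells plated in 384 wells; compound, DMSO, staurosporine transferred by ECHO; 105 min, 37° C., 5% CO2; Proteasome-Glo (Suc-LLVY-Glo) reagent added; dark 10-15 min; luminescence; IC50 nM.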

For assay [4], the system named is A2780 (human ovarian cancer cell line). Nature of the assay: 48 hr CTG viability assay, A2780. In kind it is cell-based. On the procedure: (§1) A viability assay was conducted for 48 hours to evaluate the inhibition of cancer cell growth by proteasome inhibitors. Briefly, the candidate cell line was plated with a 96-well plate following density of cells, respectively. 6×10^3 Cells/well for A2780 (human ovarian cancer cell line) and MDA-MB-468 (breast carcinoma), 8×10^3 Cells/well for Hs746T (human gastric carcinoma cell line), 1.1×10^4 Cells/well for MM1 S and RPMI 8226 (multiple myeloma). After 24 hours, the cells were treated with various concentrations of the compound (ranging from 0.0015 uM to 10 uM). […] After 48 hours of incubation at 37° C., 5% CO2 incubator, cells were analyzed for viability using the CellTiter-Glo Luminescent Cell Viability assay (Promega, Cat #G7570). All viability assays were performed in duplicate and Luminescence was read using an Envision (Perkin Elmer, USA). Data were analyzed using XLfit software. […] (human gastric carcinoma cell line), MM1 S (B lymphoblast cell line), and RPMI 8226 (B lymphocyte cell line, multiple myeloma). Inhibition is indicated as IC50 [nM] (“-”=not measured).

Assay [5] deals with MDA-MB-468 (breast carcinoma). Nature of the assay: 48 hr CTG viability assay, MDA-MB-468. In kind it is cell-based. Conditions: Homo sapiens. On the procedure: as §1
In assay [6] the test system is Hs 746T (human gastric carcinoma cell line). Nature of the assay: 48 hr CTG viability assay, Hs 746T. In kind it is cell-based. Conditions: Hs746T, 48 hr CTG, read-out: Hs 746T IC50. The method, boiled down:
(§2)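 Growth inhibition by compound over 48 h; IC50 (nM) derived from duplicate CellTiter-Glo luminescence readings across 0.0015–10 uM.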

The test system of assay [7] is MM1 S (B lymphoblast cell line). Briefly: 48 hr CTG viability assay, MM1S. In kind it is cell-based. Conditions: Homo sapiens, 48 hr CTG, read-out: MM1S IC50. The method, boiled down:
as §2

Assay [8] relates to RPMI 8226 (B lymphocyte cell line, multiple myeloma). Briefly: 48 hr CTG viability assay, RPMI 8226. In kind it is cell-based. Conditions: Homo sapiens, RPMI-8226; 48 hr CTG; read-out: RPMI-8226 IC50. An outline of the steps: as §2

Regarding `Cc1ccc2cc1CNC(=O)[C@H](CCc1ccccc1)NC(=O)[C@@H](NC(=O)[C@@H](C)c1ccc(N)cc1)CC(=O)N1CCCC(CCO2)C1` (stereo partly drawn) [Compound 634, (2S)-2-(4-aminophenyl)-N-((9S,12S)-5^4-methyl-8,11,14-trioxo-9-phenethyl-4-oxa-7,10-diaza-1(3,1)-piperidina-5(1,3)-benzenacyclotetradecaphane-12-yl)propanamide], the IC50 in assay [1], in assay [2], in assay [3], in assay [4], in assay [5] and in assay [6] was less than 100 nM in each case. For the same compound, the IC50 in assay [7] and in assay [8] was less than 100 nM each time.
For `Cc1ccc2cc1CNC(=O)[C@H](CCc1ccccc1)NC(=O)[C@@H](NC(=O)C(F)(F)CO)CC(=O)N1CCCC(CCO2)C1` (stereo partly drawn) [Compound 599, 2,2-difluoro-3-hydroxy-N-((9S,12S)-5^4-methyl-8,11,14-trioxo-9-phenethyl-4-oxa-7,10-diaza-1(3,1)-piperidina-5(1,3)-benzenacyclotetradecaphane-12-yl)propanamide], the IC50 in assay [1], in assay [2], in assay [3], in assay [5], in assay [6] and in assay [7] was less than 100 nM in each case. In addition, in assay [8], the IC50 was less than 100 nM.
For `Cc1ccc2cc1CNC(=O)[C@H](CCc1ccccc1)NC(=O)[C@@H](NC(=O)C1(CO)CCNCC1)CC(=O)N1CCCC(CCO2)C1` (stereo partly drawn) [Compound 730, 4-(hydroxymethyl)-N-((9S,12S)-5^4-methyl-8,11,14-trioxo-9-phenethyl-4-oxa-7,10-diaza-1(3,1)-piperidina-5(1,3)-benzenacyclotetradecaphane-12-yl)piperidine-4-carboxamide], the IC50 in assay [1] is less than 100 nM; in assay [2], less than 100 nM; in assay [3], 100 to 500 nM; in assay [5] it was 1000 to 5000 nM; in assay [6], 500 to 1000 nM; in assay [7], 100 to 500 nM. Moreover, the IC50 in assay [8] was 500 to 1000 nM.
Regarding `Cc1ccc2cc1CNC(=O)[C@H](CCc1ccccc1)NC(=O)[C@@H](NC(=O)Cc1ccc(NC(=O)[C@@H](N)CCC(=O)O)cc1C)CC(=O)N1CCCC(CCO2)C1` (stereo partly shown) [Compound 574], the IC50 in assay [5], in assay [6], in assay [7] and in assay [8] was less than 100 nM in each case.
On to `Cc1ccc2cc1CNC(=O)[C@H](CCc1ccccc1)NC(=O)[C@@H](NC(=O)C1(CO)CCOCC1)CC(=O)N1CCCC(CCO2)C1` (stereo partly drawn) [Compound 671, 4-(hydroxymethyl)-N-((9S,12S)-5^4-methyl-8,11,14-trioxo-9-phenethyl-4-oxa-7,10-diaza-1(3,1)-piperidina-5(1,3)-benzenacyclotetradecaphane-12-yl)tetrahydro-2H-pyran-4-carboxamide], for which the IC50 in assay [1], in assay [2], in assay [3], in assay [5], in assay [6] and in assay [7] was less than 100 nM in each case. Also, the IC50 in assay [8] is less than 100 nM.
As for `Cc1ccc2cc1CNC(=O)[C@H](CCc1cccnc1)NC(=O)[C@@H](NC(=O)C(C)(C)CO)CC(=O)N1CCCC(CCO2)C1` (stereo partly drawn) [Compound 683, 3-hydroxy-2,2-dimethyl-N-((9S,12S)-5^4-methyl-8,11,14-trioxo-9-(2-(pyridin-3-yl)ethyl)-4-oxa-7,10-diaza-1(3,1)-piperidina-5(1,3)-benzenacyclotetradecaphane-12-yl)propanamide], the IC50 in assay [1], in assay [2], in assay [3], in assay [5], in assay [6] and in assay [7] was less than 100 nM throughout. The IC50 in assay [8] was less than 100 nM.
Regarding `Cc1ccc2cc1CNC(=O)[C@H](CCc1ccccc1)NC(=O)[C@@H](NC(=O)[C@H](C)c1ccc(N)cc1)CC(=O)N1CCCC(CCO2)C1` (stereo partly drawn) [Compound 738, (2R)-2-(4-aminophenyl)-N-((9S,12S)-5^4-methyl-8,11,14-trioxo-9-phenethyl-4-oxa-7,10-diaza-1(3,1)-piperidina-5(1,3)-benzenacyclotetradecaphane-12-yl)propanamide], the IC50 in assay [1], in assay [2], in assay [3], in assay [4], in assay [5] and in assay [6] was less than 100 nM in each case. Besides, the IC50 in assay [7] and in assay [8] was less than 100 nM throughout.
Take `Cc1ccc2cc1CNC(=O)[C@H](CCc1ccccc1)NC(=O)[C@@H](NC(=O)C(C)(C)CO)CCC(=O)NCCCO2` [Compound 732, 3-hydroxy-2,2-dimethyl-N-((10S,13S)-1^4-methyl-7,11,14-trioxo-13-phenethyl-2-oxa-6,12,15-triaza-1(1,3)-benzenacyclohexadecaphane-10-yl)propanamide]: the IC50 in assay [1] was less than 100 nM; in assay [2], less than 100 nM; in assay [3], 1000 to 5000 nM; in assay [5], 1000 to 5000 nM; in assay [6], greater than 5000 nM; in assay [7], 1000 to 5000 nM. In addition, in assay [8], the IC50 is 500 to 1000 nM.
With `Cc1ccc2cc1CNC(=O)[C@H](CCc1ccccc1)NC(=O)[C@@H](NC(=O)C(C)(C)CO)CC(=O)NCCCCO2` [Compound 735, 3-hydroxy-2,2-dimethyl-N-((10S,13S)-1^4-methyl-8,11,14-trioxo-13-phenethyl-2-oxa-7,12,15-triaza-1(1,3)-benzenacyclohexadecaphane-10-yl)propanamide], the IC50 in assay [1] was 100 to 500 nM; in assay [2], less than 100 nM; in assay [3], greater than 5000 nM; in assay [5] it was greater than 5000 nM; in assay [6] it was greater than 5000 nM; in assay [7], 1000 to 5000 nM. Also, the IC50 in assay [8] fell in the range of 1000 to 5000 nM.
As to `Cc1ccc2cc1CNC(=O)[C@H](CCc1ccccc1)NC(=O)[C@@H](NC(=O)N1CCc3cc(N)ccc31)CC(=O)N1CCCC(CCO2)C1` (stereo partly drawn) [Compound 704, 5-amino-N-((9S,12S)-5^4-methyl-8,11,14-trioxo-9-phenethyl-4-oxa-7,10-diaza-1(3,1)-piperidina-5(1,3)-benzenacyclotetradecaphane-12-yl)indoline-1-carboxamide], the IC50 in assay [1], in assay [2], in assay [3], in assay [5], in assay [6] and in assay [7] was less than 100 nM each time. Moreover, the IC50 in assay [8] is less than 100 nM.
With `Cc1ccc2cc1CNC(=O)[C@H](CCc1ccccc1)NC(=O)[C@@H](NC(=O)C1(CO)CC1)CC(=O)N1CCCC(CCO2)C1` (stereo partly drawn) [Compound 664, 1-(hydroxymethyl)-N-((9S,12S)-5^4-methyl-8,11,14-trioxo-9-phenethyl-4-oxa-7,10-diaza-1(3,1)-piperidina-5(1,3)-benzenacyclotetradecaphane-12-yl)cyclopropane-1-carboxamide], the IC50 in assay [1], in assay [2], in assay [3], in assay [5], in assay [6] and in assay [7] was less than 100 nM throughout. In addition, the IC50 in assay [8] is less than 100 nM.
